≈ marks a conversion by molar mass, not a printed value. Where two headings read alike, the source gives them in different places. One block for each compound: values may come before it.
Experiments:
Pseudomonas aeruginosa = assay: In vitro antibacterial activity, agar dilution MIC (Experiment 1); assay type: cell-based; details: agar dilution (Table 3)
Description: Tested strains: all the clinically separated strains below were purchased from public facilities.
Escherichia coli ATCC25922, Pseudomonas aeruginosa ATCC27853, Klebsiella pneumoniae ATCC700603, and the like.
Tested Samples: Imipenem, Ceftazidime: Commercial Products, the Following Experiments were Carried Out According to the Content of an Effective Ingredient in Each Commercial Product;
The compounds of the present invention, their chemical names, and preparation methods are shown in the preparation example of each compound.
Experiment method: Agar dilution method, refer to National Committee for Clinical Laboratory Standards. 2006. Methods for Dilution Antimicrobial Susceptibility Tests for Bacteria That Grow Aerobically; Approved Standard—Seventh Edition M7-A7, Vol 26, No. 2, 2006, to determine the MIC of the compound. MIC represents the minimum inhibitory concentration.

[1] = Pharmacokinetics (PK) determination in SD rats (Experiment 4); assay type: in vivo; details: plasma; for AUC(0-t) / AUC(0-inf): Sprague-Dawley (SD), rat, iv; for AUC(0-inf): read-out: AUCINF_obs
Description: The compound of the present invention, self-prepared and dissolved in a suitable solvent.
Instrument and equipment: API4000 LC-MS/MS
Chromatographic column: Waters XBridge C18(2.1×50 mm, […])
Rat blood collection: Animals were fixed. The animal's tail was heated with a water bathtub 10 minutes before each time point. About 200 μL of the blood was collected through the caudal vein. After the blood collection, the blood was placed in an anticoagulation tube containing heparin sodium. The blood samples were centrifuged at 8000 rpm for 6 minutes at 4° C. to obtain plasma samples. The plasma must be prepared within 30 minutes after the blood collection. The plasma was stored in a refrigerator at −80° C. before the test.
(1) Test samples were removed from the refrigerator (−80° C.), naturally thawed at room temperature, and then vortexed for 5 minutes;
(2) 20 μL sample was precisely pipetted to a 1.5 mL centrifuge tube;
(3) 200 μL of the internal standard solution was added;
(4) The mixture was vortexed for 5 minutes and centrifuged for 5 minutes (12000 revolutions per minute);
(5) 100 μL of the supernate was precisely pipetted, 100 μL of water was added, the mixture was vortexed for 5 minutes, and the sample was sent to LC-MS/MS for analysis.
The results of the concentrations of the test samples (plasma samples) were output with Analyst 1.6.1 of AB Corporation. The meaning value, the standard deviation, the coefficient of variation, and other parameters (not necessary to calculate the parameter that can be directly output from Analyst 1.6.1) were calculated with Microsoft Excel, and the PK parameter is calculated with Pharsight Phoenix 6.1 software.

Structure (SMILES): CC(O)C(NC(=O)c1ccc(/C=C/C=C/c2ccco2)cc1)C(=O)NO (racemic) [Compound 25]
MIC50 (Pseudomonas aeruginosa; read-out: MIC50): 1 µg/mL (≈ 2.81 µM)
MIC90 (Pseudomonas aeruginosa; read-out: MIC90): > 16 µg/mL

Structure (SMILES): CC(C)(O/N=C(\C(=O)N[C@@H]1C(=O)N2C(C(=O)[O-])=C(C[n+]3ccccc3)CS[C@H]12)c1csc(N)n1)C(=O)O [Ceftazidime, reference compound]
MIC50 (Pseudomonas aeruginosa; read-out: MIC50): 2 µg/mL (≈ 3.66 µM)
MIC90 (Pseudomonas aeruginosa; read-out: MIC90): > 16 µg/mL

Structure (SMILES): C[C@@H](O)[C@H](NC(=O)c1ccc(/C=C/C=C/c2ccco2)cc1)C(=O)NO [Compound 1, 4-((1E,3E)-4-(furan-2-yl)buta-1,3-dienyl)-N-((2S,3R)-3-hydroxy-1-(hydroxyamino)-1-oxobutan-2-yl)benzamide]
MIC50 (Pseudomonas aeruginosa; read-out: MIC50): 1 µg/mL (≈ 2.81 µM)
MIC90 (Pseudomonas aeruginosa; read-out: MIC90): > 16 µg/mL

Structure (SMILES): C[C@@H](O)[C@H](NC(=O)c1ccc(/C=C/C=C/c2ccc(CO)o2)cc1)C(=O)NO [Compound 3, N-((2S,3R)-3-hydroxy-1-(hydroxamino)-1-oxobutan-2-yl)-4-((1E,3E)-4-(5-(hydroxymethyl)furan-2-yl)buta-1,3-dienyl)benzamide]
MIC50 (Pseudomonas aeruginosa; read-out: MIC50): 2 µg/mL (≈ 5.18 µM)
MIC90 (Pseudomonas aeruginosa; read-out: MIC90): 16 µg/mL (≈ 41.4 µM)

Structure (SMILES): C[C@@H](O)[C@H](NC(=O)c1ccc(C#CC#Cc2ccc(CN3CCNCC3)o2)cc1)C(=O)NO [Compound 24, N-((2S,3R)-3-hydroxy-1-(hydroxyamino)-1-oxobutan-2-yl)-4-((5-(piperazin-1-ylmethyl)furan-2-yl)buta-1,3-diynyl)benzamide]
MIC50 (Pseudomonas aeruginosa; read-out: MIC50): 4 µg/mL (≈ 8.88 µM)
MIC90 (Pseudomonas aeruginosa; read-out: MIC90): > 16 µg/mL

Structure (SMILES): C[C@@H](O)[C@H](NC(=O)c1ccc(C(=O)N/N=C/c2ccco2)cc1)C(=O)NO [Compound 26, 4-(2-(furan-2-methylene)hydrazinecarbonyl)-N-((2S,3R)-3-hydroxy-1-(hydroxyamino)-1-oxobutan-2-yl)-benzamide]
MIC90 (Pseudomonas aeruginosa; read-out: MIC90): 4 µg/mL (≈ 10.7 µM)

Next, values leading:

AUCINF_obs ([1]; IV 2 mg/kg, 2 mg/kg): 4902 ± 532 ng·h/mL
AUClast ([1]; IV 2 mg/kg, 2 mg/kg): 4891 ± 533 ng·h/mL
Cl_obs ([1]; IV 2 mg/kg, 2 mg/kg): 17.2 ± 1.83 mL/min/kg
Vz_obs ([1]; IV 2 mg/kg, 2 mg/kg): 1.03 ± 0.11 L/kg
t1/2z ([1]; IV 2 mg/kg, 2 mg/kg): 44.4 ± 9.6 min
λ_z ([1]; IV 2 mg/kg, 2 mg/kg): 0.97 ± 0.23 h⁻¹
MIC50 (Pseudomonas aeruginosa): 0.125 µg/mL (≈ 0.327 µM)
MIC90 (Pseudomonas aeruginosa): 1 µg/mL (≈ 2.62 µM)
Structure (SMILES): C[C@H](O)[C@H](NC(=O)c1ccc(C#CC#Cc2ccc(CO)o2)cc1)C(=O)NO [Compound 10, N-((2S,3S)-3-hydroxy-1-(hydroxyamino)-1-oxobutan-2-yl)-4-((5-(hydroxymethyl)furan-2-yl)buta-1,3-diynyl)benzamide]

MIC50 (Pseudomonas aeruginosa; read-out: MIC50): 2 µg/mL (≈ 4.56 µM)
MIC90 (Pseudomonas aeruginosa; read-out: MIC90): 4 µg/mL (≈ 9.12 µM)
Structure (SMILES): C[C@@H](O)[C@H](NC(=O)c1ccc(C#CC#Cc2ccc(CNCCCN)o2)cc1)C(=O)NO [Compound 12, 4-((5-((3-aminopropylamino)methyl)furan-2-yl)buta-1,3-diynyl)-N-((2S,3R)-3-hydroxy-1-(hydroxyamino)-1-oxobutan-2-yl)benzamide]

Cl_obs ([1]; IV 2 mg/kg): 69 ± 11.7 mL/min/kg
Vz_obs ([1]; IV 2 mg/kg): 2.09 ± 0.39 L/kg
t1/2z ([1]; IV 2 mg/kg): 21 ± 0.6 min
λ_z ([1]; IV 2 mg/kg): 1.98 ± 0.04 h⁻¹
AUC(0-t) ([1]; 2 mg/kg): 485 ± 87.4 ng·h/mL
AUC(0-inf) ([1]; 2 mg/kg): 493 ± 87.9 ng·h/mL
MIC50 (Pseudomonas aeruginosa; read-out: MIC50): 2 µg/mL (≈ 4.31 µM)
MIC90 (Pseudomonas aeruginosa; read-out: MIC90): 8 µg/mL (≈ 17.2 µM)
Structure (SMILES): C[C@@H](O)[C@H](NC(=O)c1ccc(C#CC#Cc2ccc(CN3CCN(C)CC3)o2)cc1)C(=O)NO [Compound 13, N-((2S,3R)-3-hydroxy-1-(hydroxyamino)-1-oxobutan-2-yl)-4-((5-((4-methylpiperazin-1-yl)methyl)furan-2-yl)buta-1,3-diynyl)benzamide]

Cl_obs ([1]; IV 2 mg/kg): 25.2 ± 4.5 mL/min/kg
Vz_obs ([1]; IV 2 mg/kg): 1.57 ± 0.28 L/kg
t1/2z ([1]; IV 2 mg/kg): 44.4 ± 13.2 min
λ_z ([1]; IV 2 mg/kg): 0.99 ± 0.29 h⁻¹
AUC(0-t) ([1]; 2 mg/kg): 1330 ± 108 ng·h/mL
AUC(0-inf) ([1]; 2 mg/kg): 1350 ± 222 ng·h/mL
MIC50 (Pseudomonas aeruginosa; read-out: MIC50): 0.5 µg/mL (≈ 1.26 µM)
MIC90 (Pseudomonas aeruginosa; read-out: MIC90): 2 µg/mL (≈ 5.06 µM)
Structure (SMILES): CNCc1ccc(C#CC#Cc2ccc(C(=O)N[C@H](C(=O)NO)[C@@H](C)O)cc2)o1 [Compound 15, N-((2S,3R)-3-hydroxy-1-(hydroxyamino)-1-oxobutan-2-yl)-4-((5-((methylamino)methyl)furan-2-yl)buta-1,3-diynyl)benzamide]

Cl_obs ([1]; IV 2 mg/kg): 12 ± 0.67 mL/min/kg
Vz_obs ([1]; IV 2 mg/kg): 0.47 ± 0.16 L/kg
t1/2z ([1]; IV 2 mg/kg): 27 ± 8.4 min
λ_z ([1]; IV 2 mg/kg): 1.67 ± 0.58 h⁻¹
AUC(0-t) ([1]; 2 mg/kg): 2780 ± 130 ng·h/mL
AUC(0-inf) ([1]; 2 mg/kg): 2790 ± 136 ng·h/mL
MIC50 (Pseudomonas aeruginosa; read-out: MIC50): 0.5 µg/mL (≈ 1.26 µM)
MIC90 (Pseudomonas aeruginosa; read-out: MIC90): 2 µg/mL (≈ 5.05 µM)
Structure (SMILES): Cc1cc(C#CC#Cc2ccc(C(=O)N[C@H](C(=O)NO)[C@@H](C)O)cc2)oc1CO [Compound 16, N-((2S,3R)-3-hydroxy-1-(hydroxyamino)-1-oxobutan-2-yl)-4-((5-(hydroxymethyl)-4-methylfuran-2-yl)buta-1,3-diynyl)benzamide]

MIC50 (Pseudomonas aeruginosa; read-out: MIC50): 8 µg/mL (≈ 17.4 µM)
MIC90 (Pseudomonas aeruginosa; read-out: MIC90): > 16 µg/mL
Structure (SMILES): C[C@@H](O)[C@H](NC(=O)c1ccc(C#CC#Cc2oc(CO)cc2-c2ccccc2)cc1)C(=O)NO [Compound 17, N-((2S,3R)-3-hydroxy-1-(hydroxyamino)-1-oxobutan-2-yl)-4-((5-(hydroxymethyl)-3-phenylfuran-2-yl)buta-1,3-diynyl)benzamide]

Reference: US11498909B2, “Compound acting as antibiotics” (KBP BIOSCIENCES CO., LTD., priority 2018, dated 2022)
